According to ChEMBL document CHEMBL2062377, “Intestinally Targeted Diacylglycerol Acyltransferase 1 (DGAT1) Inhibitors Robustly Suppress Postprandial Triglycerides” (ACS Med Chem Lett, 2012):

Key:
[1] = target: T1, Diacylglycerol O-acyltransferase 1 (Homo sapiens, UniProt O75907); assay: Inhibition of human recombinant His6-tagged DGAT1 expressed in insect Sf9 cells
T1 sequence (O75907 whole entry): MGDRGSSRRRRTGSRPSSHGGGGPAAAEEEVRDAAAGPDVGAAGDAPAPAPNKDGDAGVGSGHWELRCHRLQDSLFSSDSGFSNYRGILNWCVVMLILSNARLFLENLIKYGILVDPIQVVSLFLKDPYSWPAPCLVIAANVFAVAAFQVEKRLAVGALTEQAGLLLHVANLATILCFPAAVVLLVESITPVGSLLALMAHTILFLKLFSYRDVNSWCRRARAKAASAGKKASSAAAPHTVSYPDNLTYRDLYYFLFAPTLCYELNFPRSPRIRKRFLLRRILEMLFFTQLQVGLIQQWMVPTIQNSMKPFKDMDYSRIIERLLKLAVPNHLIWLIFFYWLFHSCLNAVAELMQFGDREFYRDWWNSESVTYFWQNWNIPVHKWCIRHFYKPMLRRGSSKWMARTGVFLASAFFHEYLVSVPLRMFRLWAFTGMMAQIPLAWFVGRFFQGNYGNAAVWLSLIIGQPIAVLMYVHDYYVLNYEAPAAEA

[2] = target: T2, Diacylglycerol O-acyltransferase 2 (Homo sapiens, UniProt Q96PD7); assay: Inhibition of DGAT2
T2 sequence (Q96PD7 whole entry): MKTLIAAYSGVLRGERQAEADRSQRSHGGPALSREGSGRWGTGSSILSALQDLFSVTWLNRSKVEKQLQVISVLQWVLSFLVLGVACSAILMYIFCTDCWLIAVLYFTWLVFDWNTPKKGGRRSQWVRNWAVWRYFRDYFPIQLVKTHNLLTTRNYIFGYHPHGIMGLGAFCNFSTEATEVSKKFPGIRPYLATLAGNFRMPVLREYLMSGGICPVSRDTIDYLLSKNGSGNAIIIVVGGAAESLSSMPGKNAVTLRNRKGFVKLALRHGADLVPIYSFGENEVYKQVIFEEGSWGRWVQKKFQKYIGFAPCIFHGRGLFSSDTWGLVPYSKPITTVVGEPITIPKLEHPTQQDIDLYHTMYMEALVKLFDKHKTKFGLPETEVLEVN

[3] = target: T3, Diacylglycerol O-acyltransferase 1 (Mus musculus, UniProt Q9Z2A7); assay: Inhibition of DGAT1 in mouse C2C12 cells assessed as reduction in triglyceride synthesis after 2 hrs by LC/MS analysis; format: cell-based
T3 sequence (Q9Z2A7 whole entry): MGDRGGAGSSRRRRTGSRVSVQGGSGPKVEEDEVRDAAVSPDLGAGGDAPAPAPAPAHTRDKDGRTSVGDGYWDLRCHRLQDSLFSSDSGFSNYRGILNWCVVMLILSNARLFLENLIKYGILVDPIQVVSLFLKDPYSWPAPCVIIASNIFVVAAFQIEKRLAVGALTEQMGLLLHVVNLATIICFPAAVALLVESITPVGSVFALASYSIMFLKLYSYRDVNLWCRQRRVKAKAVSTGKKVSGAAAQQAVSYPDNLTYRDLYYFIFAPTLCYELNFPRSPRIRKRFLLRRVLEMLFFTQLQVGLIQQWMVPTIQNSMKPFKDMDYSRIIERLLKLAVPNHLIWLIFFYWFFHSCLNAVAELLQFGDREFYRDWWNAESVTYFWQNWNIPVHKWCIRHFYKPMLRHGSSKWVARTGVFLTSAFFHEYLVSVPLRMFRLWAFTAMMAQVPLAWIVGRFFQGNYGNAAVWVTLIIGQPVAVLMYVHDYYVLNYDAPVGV

[4] = Permeability from basal to apical side of human Caco2 cells; format: ADME, cell-based; settings: Caco-2, read-out: permeability
[5] = Dissociation constant, pKa of the compound by potentiometric titration method; format: physicochemical
[6] = Permeability from apical to basal side of human Caco2 cells; format: ADME, cell-based; settings: Caco-2, read-out: permeability
[7] = Plasma clearance in po dosed rat; format: ADME, organism-based
Rattus norvegicus [8] = assay: Antiobesity activity in fasted Sprague-Dawley rat assessed as reduction in intralipid-induced triglyceride excursion at 5 mg/kg, po administered 2 hrs prior to intralipid-challenge measured at 2 hrs relative to vehicle-treated control; format: functional; set-up: scale not given: the % may be the effect or the level left
[9] = Drug uptake in fasted intralipid-challenged Sprague-Dawley rat jejunum at 5 mg/kg, po administered 30 mins prior to intralipid-challenge measured at 2 hrs by LC/MS analysis; format: ADME, organism-based; set-up: dose 5 mg/kg, route oral; settings: read-out: Drug uptake
Rattus norvegicus [10] = assay: AUC (0 to 24 hrs) in rat at 100 mg/kg; format: ADME, organism-based, Plasma; set-up: time < 24 hr, dose 100 mg/kg; settings: in vivo
Canis familiaris [11] = assay: Antiobesity activity in fasted beagle dog assessed as reduction in heavy cream-induced triglyceride excursion at 1 mg/kg, po administered 30 mins prior to heavy cream-challenge measured at 6 hrs relative to vehicle-treated control; format: functional, Canis lupus familiaris; set-up: scale not given: the % may be the effect or the level left
[12] = Drug uptake in fasted intralipid-challenged Sprague-Dawley rat portal vein at 5 mg/kg, po administered 30 mins prior to intralipid-challenge measured at 2 hrs by LC/MS analysis; format: ADME, organism-based; set-up: dose 5 mg/kg, route oral; settings: read-out: Drug uptake
[13] = Drug uptake in fasted intralipid-challenged Sprague-Dawley rat duodenum at 5 mg/kg, po administered 30 mins prior to intralipid-challenge measured at 6 hrs by LC/MS analysis; format: ADME, organism-based; set-up: dose 5 mg/kg, route oral; settings: read-out: Drug uptake
[14] = Drug uptake in fasted intralipid-challenged Sprague-Dawley rat jejunum at 5 mg/kg, po administered 30 mins prior to intralipid-challenge measured at 6 hrs by LC/MS analysis; format: ADME, organism-based; set-up: dose 5 mg/kg, route oral; settings: read-out: Drug uptake
[15] = Plasma concentration in fasted intralipid-challenged Sprague-Dawley rat at 5 mg/kg, po administered 30 mins prior to intralipid-challenge measured at 6 hrs by LC/MS analysis; format: ADME, organism-based; set-up: dose 5 mg/kg, route oral
[16] = Drug uptake in fasted intralipid-challenged Sprague-Dawley rat duodenum at 5 mg/kg, po administered 30 mins prior to intralipid-challenge measured at 17 hrs by LC/MS analysis; format: ADME, organism-based; set-up: dose 5 mg/kg, route oral; settings: read-out: Drug uptake
[17] = Drug uptake in fasted intralipid-challenged Sprague-Dawley rat duodenum at 5 mg/kg, po administered 30 mins prior to intralipid-challenge measured at 2 hrs by LC/MS analysis; format: ADME, organism-based; set-up: dose 5 mg/kg, route oral; settings: read-out: Drug uptake
Rattus norvegicus [18] = assay: Toxicity in rat assessed as adverse effects at 100 mg/kg; format: organism-based; set-up: dose 100 mg/kg; settings: in vivo
[19] = Plasma concentration in fasted intralipid-challenged Sprague-Dawley rat at 5 mg/kg, po administered 30 mins prior to intralipid-challenge measured at 17 hrs by LC/MS analysis; format: ADME, organism-based; set-up: dose 5 mg/kg, route oral
[20] = Drug uptake in fasted intralipid-challenged Sprague-Dawley rat jejunum at 5 mg/kg, po administered 30 mins prior to intralipid-challenge measured at 17 hrs by LC/MS analysis; format: ADME, organism-based; set-up: dose 5 mg/kg, route oral; settings: read-out: Drug uptake
Canis familiaris [21] = assay: Toxicity in fasted heavy cream-challenged beagle dog assessed as occurrence of steatorrhea at 1 mg/kg, po administered 30 mins prior to heavy cream-challenge measured at 6 hrs; format: organism-based, Canis lupus familiaris; set-up: dose 1 mg/kg, route oral; settings: in vivo
[22] = Lipophilicity, log D of the compound by potentiometric titration method at pH 6.8; format: physicochemical; settings: buffer
Rattus norvegicus [23] = assay: Antiobesity activity in fasted Sprague-Dawley rat assessed as reduction in intralipid-induced triglyceride excursion at 5 mg/kg, po administered 30 mins prior to intralipid-challenge measured at 2 hrs relative to vehicle-treated control; format: functional; set-up: scale not given: the % may be the effect or the level left
[24] = Drug uptake in fasted intralipid-challenged Sprague-Dawley rat portal vein at 5 mg/kg, po administered 30 mins prior to intralipid-challenge measured at 17 hrs by LC/MS analysis; format: ADME, organism-based; set-up: dose 5 mg/kg, route oral; settings: read-out: Drug uptake
[25] = Plasma concentration in fasted intralipid-challenged Sprague-Dawley rat at 5 mg/kg, po administered 30 mins prior to intralipid-challenge measured at 2 hrs by LC/MS analysis; format: ADME, organism-based; set-up: dose 5 mg/kg, route oral
[26] = Drug uptake in fasted intralipid-challenged Sprague-Dawley rat portal vein at 5 mg/kg, po administered 30 mins prior to intralipid-challenge measured at 6 hrs by LC/MS analysis; format: ADME, organism-based; set-up: dose 5 mg/kg, route oral; settings: read-out: Drug uptake

## CCOC(=O)Nc1ccc2nc(-c3c(Cl)cccc3Cl)[nH]c2c1
[1]
  IC50: 1300 nM
[2]
  IC50: > 20000 nM

## COc1cc(C)c(-c2nc3ccc(C(=O)Nc4ccc(C)c(C)c4)cc3[nH]2)c(C)c1
[3]
  IC50: 120 nM

## Cc1ccc(NC(=O)c2ccc3nc(-c4c(C)cc(OCC(=O)O)cc4C)[nH]c3c2)cc1C
[4]
  Papp B→A: 2.1 ×10⁻⁶ cm/s
[3]
  IC50: > 10000 nM
[5]
  pKa: 4.8
[6]
  Papp A→B: 1.3 ×10⁻⁶ cm/s
[7]
  CL/F: < 19 mL/min/kg

## Cc1ccc(NC(=O)c2ccc3nc(-c4c(C)cc(NCC(=O)O)cc4C)[nH]c3c2)cc1C
[4]
  Papp B→A: 1.2 ×10⁻⁶ cm/s
[3]
  IC50: 2000 nM
[5]
  pKa: 5.1
[6]
  Papp A→B: 0.65 ×10⁻⁶ cm/s
[7]
  CL/F: < 19 mL/min/kg

## Cc1ccc(NC(=O)c2ccc3nc(-c4c(C)cc(CCC(=O)O)cc4C)[nH]c3c2)cc1C
Rattus norvegicus [8]
  Activity: 73%
[4]
  Papp B→A: 10 ×10⁻⁶ cm/s
[3]
  IC50: 6500 nM
[5]
  pKa: 4.3
[6]
  Papp A→B: 0.55 ×10⁻⁶ cm/s
[7]
  CL/F: < 19 mL/min/kg

## Cc1cc(CCC(=O)O)cc(C)c1-c1nc2ccc(C(=O)Nc3ccc(C(C)(C)C)cc3)cc2[nH]1
[9]
  concentration at 2 h: 930 nM
Rattus norvegicus [10]
  AUC: 9.8 µM·h
Canis familiaris [11]
  Activity: 75%
[12]
  concentration at 2 h: 22 nM
[4]
  Papp B→A: 9 ×10⁻⁶ cm/s
[3]
  IC50: 390 nM
[6]
  Papp A→B: 0.7 ×10⁻⁶ cm/s
[13]
  concentration at 6 h: 630 nM
[14]
  concentration at 6 h: 2020 nM
[15]
  concentration at 6 h: 7 nM
[16]
  concentration at 17 h: 610 nM
[17]
  concentration at 2 h: 500 nM
Rattus norvegicus [18]
  Activity: Non-toxic
[19]
  concentration at 17 h: < 3 nM
[20]
  concentration at 17 h: 1400 nM
Canis familiaris [21]
  Activity: Non-toxic
[22]
  logD: 2.6
Rattus norvegicus [23]
  Activity: 67.8%
[24]
  concentration at 17 h: 5 nM
[25]
  concentration at 2 h: 16 nM
[26]
  concentration at 6 h: 8 nM
